Legend:
Assay type in all cases: in vivo
[1] = tested on: morningglory (Ipomoea spp.); assay: Test A pre-/postemergence: morningglory
How it was run: (§1)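 Whole-plant greenhouse assay in loam/sand. Preemergence directed soil spray plus simultaneous postemergence spray (one- to two-leaf stage, 2–10 cm). Rated visually ~10 days later, 0 = no effect, 100 = complete control.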

[2] = tested on: pigweed (Amaranthus retroflexus); assay: Test A pre-/postemergence: pigweed
How it was run: as §1

[3] = tested on: johnsongrass (Sorghum halepense); assay: Test C pre-/postemergence: johnsongrass; details: Preemergence
Text: (§2) Seeds of plant species selected from blackgrass (Alopecurus myosuroides), bromegrass, downy (downy bromegrass, Bromus tectorum), foxtail, green (green foxtail, Setaria viridis), ryegrass, Italian (Italian ryegrass, Lolium multiflorum), winter wheat (Triticum aestivum), wild oat (Avena fatua), galium (catchweed bedstraw, Galium aparine), bermudagrass (Cynodon dactylon), surinam grass (Brachiaria decumbens), cocklebur (common cocklebur, Xanthium strumarium), corn (Zea mays), large crabgrass (Digitaria sanguinalis), woolly cupgrass (Eriochloa villosa), foxtail, giant (giant foxtail, Setaria faberii), goosegrass (Eleusine indica), johnsongrass (Sorghum halepense), kochia (Kochia scoparia), lambsquarters (Chenopodium album), morningglory (Ipomoea coccinea), nightshade (eastern black nightshade, Solanum ptycanthum), nutsedge, yellow (yellow nutsedge, Cyperus esculentus), pigweed (Amaranthus retroflexus), ragweed (common ragweed, Ambrosia elation), soybean (Glycine max), common (oilseed) sunflower (Helianthus annuus), Russian thistle (Salsola kali) and velvetleaf (Abutilon theophrasti) were planted into a blend of loam soil and sand and treated preemergence with test chemicals formulated in a non-phytotoxic solvent mixture which included a surfactant.
(§3) At the same time, plants selected from these crop and weed species and also barley (winter barley, Hordeum vulgare), canarygrass (Phalaris minor), chickweed (common chickweed, Stellaria media) windgrass (Apera spica-venti) and deadnettle (henbit deadnettle, Lamium amplexicaule) were planted in pots containing Redi-Earth® planting medium (Scotts Company, 14111 Scottslawn Road, Marysville, Ohio 43041) comprising spaghnum peat moss, vermiculite, wetting agent and starter nutrients and treated with postemergence applications of test chemicals formulated in the same manner. Plants ranged in height from 2 to 18 cm (1- to 4-leaf stage) for postemergence treatments.
(§4) Treated plants and controls were maintained in a greenhouse for 13 to 15 days, after which time all species were compared to controls and visually evaluated. Plant response ratings, summarized in Table C, are based on a scale of 0 to 100 where 0 is no effect and 100 is complete control. A dash (-) response means no test result.

[4] = tested on: ryegrass, Italian (Italian ryegrass, Lolium multiflorum); assay: Test C pre-/postemergence: ryegrass, Italian; details: Preemergence
Text: as §2, §3, §4

[5] = tested on: large crabgrass (Digitaria sanguinalis); assay: Test C pre-/postemergence: large crabgrass; details: Preemergence
Text: as §2, §3, §4

[6] = tested on: corn (Zea mays); assay: Test C pre-/postemergence: corn; details: Preemergence
Text: as §2, §3, §4

[7] = tested on: wheat (Triticum aestivum); assay: Test A pre-/postemergence: wheat
How it was run: as §1

[8] = tested on: corn (Zea mays); assay: Test A pre-/postemergence: corn
How it was run: as §1

[9] = tested on: morningglory (Ipomoea coccinea); assay: Test C pre-/postemergence: morningglory; details: Preemergence
Text: as §2, §3, §4

[10] = Postemergence, 125 g ai/ha, 0 to 100 scale, 0 is no effect, 100 is complete control
[11] = Postemergence, 500 g ai/ha, 0 to 100 scale, 0 is no effect, 100 is complete control
[12] = Preemergence, 125 g ai/ha, 0 to 100 scale where 0 is no effect and 100 is complete control
[13] = Preemergence, 500 g ai/ha, 0 to 100 scale (0 no effect, 100 complete control)
[14] = 16 g ai/ha, scale 0 (no effect) to 100 (complete control)
[15] = 31 g ai/ha, scale 0 (no effect) to 100 (complete control)
[16] = 62 g ai/ha, scale of 0 to 100, 0 is no effect, 100 is complete control
[17] = 125 g ai/ha, scale 0 to 100, 0 no effect, 100 complete control

CCOc1nn(-c2ccc(Br)cc2)nc1Cc1ccnc(C(F)(F)F)c1 [Compound 189]
Plant response rating, Morningglory [1, 10]: 60
Morningglory plant response rating [1, 11]: 80
Plant response rating, Morningglory [1, 12]: 20
Plant response rating, Morningglory [1, 13]: 30
Plant response rating, Pigweed [2, 10]: 100
Pigweed plant response rating [2, 11]: 100
Plant response rating, Pigweed [2, 12]: 100
Plant response rating, Pigweed [2, 13]: 100
Plant response rating, Johnsongrass [3, 14]: 30
Plant response rating, Johnsongrass [3, 15]: 50
Plant response rating, Johnsongrass [3, 16]: 85
Plant response rating, Johnsongrass [3, 17]: 85
Plant response rating, Ryegrass, Italian [4, 14]: 50
Plant response rating, Ryegrass, Italian [4, 15]: 60
Plant response rating, Ryegrass, Italian [4, 16]: 85
Plant response rating, Ryegrass, Italian [4, 17]: 100
Plant response rating, Crabgrass, Large [5, 14]: 98
Plant response rating, Crabgrass, Large [5, 15]: 98
Plant response rating, Crabgrass, Large [5, 16]: 100
Plant response rating, Crabgrass, Large [5, 17]: 100
Plant response rating, Corn [6, 14]: 5
Plant response rating, Corn [6, 15]: 5
Plant response rating, Corn [6, 16]: 15
Plant response rating, Corn [6, 17]: 20
Plant response rating, Wheat [7, 10]: 50
Wheat plant response rating [7, 11]: 60
Plant response rating, Wheat [7, 12]: 20
Plant response rating, Wheat [7, 13]: 50
Plant response rating, Corn [8, 10]: 20
Corn plant response rating [8, 11]: 40
Plant response rating, Corn [8, 12]: 10
Plant response rating, Corn [8, 13]: 10
Plant response rating, Morningglory [9, 15]: 10
Plant response rating, Morningglory [9, 16]: 40
Plant response rating, Morningglory [9, 17]: 60
